{"source": "patent US11478467B2", "about": "(priority 2017, dated 2022)", "key": {"[1]": {"system": "hyperactivity in rats after olfactory bulbectomy", "experiment": "Motor hyperactivity induced by olfactory bulbectomy in rats", "type": "in vivo, rat", "protocol": "In a dedicated set of studies, adult male Sprague-Dawley rats (Charles River, Germany) were subjected to bilateral olfactory bulbectomy performed under ketamine/xylasine anesthesia. The animals were allowed to recover for 14 days following surgery while being handled daily to eliminate any aggressiveness that would otherwise arise. Sham-operated animals were treated in the same way but the olfactory bulbs were left intact. Drugs administration and locomotor activity testing were performed 4 times for each rat with 72 hours break between consecutive test sessions. Prior to each test session, animals were first treated with dextromethorphan (0, 15, 30 or 60 mg/kg. per os) followed 15 min later by sarpogrelate (1, 3 and 10 mg/kg, intraperitoneal) and another 15 min later were placed into Opto-Varimex cages for locomotor activity recording over 30 min. Hyperactivity in rats after olfactory bulbectomy is observed mostly during the early portion of the test sessions. […] Post hoc pairwise comparisons (Sidak's multiple comparisons test) confirmed that significant differences between bulbectomized and sham-operated were observed only in rats that were pretreated prior to the test with vehicle instead of sarpogrelate."}, "[2]": {"experiment": "Pharmacokinetic study of sarpogrelate hydrochloride i.v. in rats", "type": "in vivo, rat", "conditions": "rat, in vivo; 2 mg/kg intravenous bolus, male Wistar rats, plasma; read-out: Apparent terminal elimination half-life (converted)", "protocol": "Pharmacokinetic study was performed in male Wistar rats equipped with the jugular vein cannulas. Sarpogrelate hydrochloride was formulated in Pharmasolv: PBS buffer (5:95) mixture and administered at the dose of 2 mg/kg intravenously. Blood samples were collected from the jugular vein using heparin as anticoagulant at the scheduled time-points: 5 min, 15 min, 30 min, 1 h, 1.5 h, 2 h, 4 h, and 6 h. An LC-MS/MS bioanalytical method was used for the simultaneous quantification of sarpogrelate and M1 in plasma samples. […] Formation of M1 metabolite of sarpogrelate was rapid as the highest M1 concentrations were measured at the first sampling time points."}, "[3]": {"experiment": "Blood glucose levels and oral glucose tolerance in rats", "type": "in vivo, rat", "conditions": "dextromethorphan administered in combination with sarpogrelate", "protocol": "Test substances were administered to male Wistar (Han) rats (180-280 g at the beginning of the experiments; Janvier Labs) housed in groups under free access to food and water. After overnight food deprivation, the tip of the tail was cut, each rat was weighed, housed individually and left without stress in a quiet room. Approximately 1 hour later, baseline blood glucose was measured from a drop of blood collected from the tail tip, using a commercially available glucose-meter (OneTouch®, Lifescan) and then rats received intraperitoneal injection of sarpogrelate and/or dextromethorphan and 30 min later blood glucose was measured again and rats immediately challenged with glucose at 2 g/kg by oral gavage. Then, blood glucose was measured at 6 time-points until 180 minutes post-glucose challenge."}, "[4]": {"target": "T1, CYP2D6 (Homo sapiens (Human), UniProt P10635)", "T1 sequence (P10635 whole entry)": "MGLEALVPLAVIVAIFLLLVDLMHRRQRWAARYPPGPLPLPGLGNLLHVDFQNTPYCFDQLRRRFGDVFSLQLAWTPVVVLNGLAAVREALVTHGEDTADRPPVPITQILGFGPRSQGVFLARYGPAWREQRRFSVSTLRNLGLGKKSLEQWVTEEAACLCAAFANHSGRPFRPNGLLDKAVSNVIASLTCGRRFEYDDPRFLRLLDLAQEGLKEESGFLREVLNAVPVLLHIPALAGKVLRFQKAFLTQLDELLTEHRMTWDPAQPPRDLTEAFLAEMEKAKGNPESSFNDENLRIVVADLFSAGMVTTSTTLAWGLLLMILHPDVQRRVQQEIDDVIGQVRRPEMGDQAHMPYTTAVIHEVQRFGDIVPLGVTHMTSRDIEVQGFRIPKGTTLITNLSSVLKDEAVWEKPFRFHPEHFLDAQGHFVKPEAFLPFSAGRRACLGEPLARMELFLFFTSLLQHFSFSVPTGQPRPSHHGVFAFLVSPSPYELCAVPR", "experiment": "Dextromethorphan O-demethylase activity in human liver microsomes", "type": "biochemical", "protocol": "Dextromethorphan O-demethylase activity was determined in human liver microsomes. […] The incubation mixtures contained pooled human liver microsomes (final concentrations: 0.25 mg/ml), dextromethorphan, and a NADPH-generating system (1.3 mM NADP+, 3.3 mM glucose 6-phosphate, 3.3 mM MgCl2, and 0.4 U/ml glucose-6-phosphate dehydrogenase). […] All incubations were performed in triplicate, and mean values were used for analysis. […] Both sarpogrelate enantiomers inhibited CYP2D6-mediated dextromethorphan O-demethylation (Table 4)."}, "[5]": {"target": "T2, 5-HT2A receptors (Homo sapiens (Human), UniProt P28223)", "T2 sequence (P28223 whole entry)": "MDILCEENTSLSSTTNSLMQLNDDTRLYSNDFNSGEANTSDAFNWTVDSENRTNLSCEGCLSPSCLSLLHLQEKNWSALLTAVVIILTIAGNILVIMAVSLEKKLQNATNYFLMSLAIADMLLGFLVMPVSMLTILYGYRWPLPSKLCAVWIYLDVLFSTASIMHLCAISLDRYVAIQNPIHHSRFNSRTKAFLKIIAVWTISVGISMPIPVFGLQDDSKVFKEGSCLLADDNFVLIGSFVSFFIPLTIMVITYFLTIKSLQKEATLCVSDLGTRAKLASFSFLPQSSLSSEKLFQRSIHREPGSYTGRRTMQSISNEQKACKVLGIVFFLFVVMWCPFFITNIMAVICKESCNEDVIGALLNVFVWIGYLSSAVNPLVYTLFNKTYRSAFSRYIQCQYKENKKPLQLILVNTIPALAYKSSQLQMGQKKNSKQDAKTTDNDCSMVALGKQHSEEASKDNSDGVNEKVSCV", "conditions": "compared with ritanserin; cited from earlier work"}, "[6]": {"target": "2D6 (Homo sapiens (Human), UniProt P10635)", "sequence (P10635 whole entry)": "as the sequence (P10635 whole entry) above", "conditions": "in vivo; cited from earlier work"}, "[7]": {"system": "DOI-induced head shakes", "experiment": "DOI-induced head shakes in rats", "type": "in vivo, rat", "conditions": "0.3, 1 and 3 mg/kg 30 min prior to DOI 3 mg/kg; Sprague-Dawley rats"}, "[8]": {"target": "T1, CYP2D6", "conditions": "cited from earlier work"}, "[9]": {"target": "T2, 5-HT2A receptors", "experiment": "5-HT2A receptor antagonist radioligand binding ([3H]ketanserin)", "protocol": "HEK-293 cells expressing human recombinant 5HT2A receptor were used in the antagonist radioligand binding studies. […] The inhibition constants (Ki) were calculated using the Cheng Prusoff equation. Both sarpogrelate enantiomers were potent inhibitors of [3H]ketanserin binding (Table 1). M1 enantiomers also potently bind to 5HT2A receptors with the Ki values that are approximately one order of magnitude higher than those of sarpogrelate enantiomers (Table 1). There are no meaningful differences between enantiomers in terms of 5-HT2A receptor binding for sarpogrelate or its main metabolite.\n5HT2a ASSAY: Evaluation of the affinity of compounds for the human 5-HT2A receptor in transfected HEK-293 cells determined in a radioligand binding assay. Cell membrane homogenates (30-50 μg protein) were incubated 15 min at 37° C. with 0.5 nM [3H]ketanserin in the absence or presence of the test compound in a buffer containing 50 mM Tris-HCl (pH 7.4). Nonspecific binding was determined in the presence of 1 μM ketanserin. Following incubation, the samples were filtered rapidly under vacuum through glass fiber filters presoaked with 0.3% PEI and rinsed several times with ice-cold 50 mM Tris-HCl using a 96-sample cell harvester. The filters were dried then counted for radioactivity in a scintillation counter using a scintillation cocktail (WO2005013952A1, EP1500391A1[ab1], incorporated in its entirety by reference)."}, "[10]": {"system": "PCP-induced hyperactivity", "experiment": "Phencyclidine-induced hyperactivity in rats (sarpogrelate and dextromethorphan)", "type": "in vivo, rat"}, "[11]": {"target": "T1, CYP2D6", "conditions": "microsomes", "method": "Dextromethorphan O-demethylase activity is determined in human liver microsomes. […] The incubation mixtures contain pooled human liver microsomes, dextromethorphan, and a NADPH-generating system. After incubation and centrifugation, the supernatant is diluted up to 100-fold with acetonitrile and then injected into the LC-MS/MS system. All incubations are performed in triplicate, and mean values are used for analysis. The IC50 values (concentration causing a half-maximal inhibition of control specific binding) and Hill coefficients (nH) are determined using methods such as non-linear regression analysis of the competition curves generated with mean replicate values using Hill equation curve fitting."}, "[12]": {"conditions": "rat, in vivo, cited from earlier work"}, "[13]": {"system": "immobility induced by tail suspension", "experiment": "Tail suspension test in mice", "type": "in vivo, mouse", "conditions": "ritanserin with effective dose of memantine 10 mg/kg", "protocol": "Tail suspension is one of the classical tests used to study antidepressant drugs and was also applied to evaluate antidepressant-like effects of NMDA receptor channel blockers (Kos T et al., Effect of 5-HT3 receptor antagonist MDL 72222 on behaviors induced by ketamine in rats and mice. European Neuropsychopharmacology (2006) 16:297-310). Mice were transferred from the housing room to the testing area in their home cages and allowed to adapt to the new environment for at least 1 h before drug treatment. Immobility was induced by tail suspension whereby mice were attached individually on a paper adhesive tape, 65 cm above the table top. The tape was placed approximately 1 cm from the tip of the tail. Animals were suspended for 6 min and the duration of immobility was recorded. Mice were considered immobile only when they were completely motionless. […]"}}}
{"smiles": "COc1cccc(CCc2ccccc2OCC(CN(C)C)OC(=O)CCC(=O)O)c1", "note": "(racemic) [Compound 50, 4-((1-(dimethylamino)-3-(2-(3-methoxyphenethyl)phenoxy)propan-2-yl)oxy)-4-oxobutanoic acid]", "values": [{"measurement": "activity of sham-operated rats", "setting": "[1]; doses with anti-hyperactivity effects", "value": "do not affect activity of sham-operated rats"}, {"measurement": "time in ambulations of bulbectomized rats", "setting": "[1]; sarpogrelate 3 or 10 mg/kg i.p., first 15 min of the test", "value": "spent less time in ambulations"}, {"measurement": "half-life", "setting": "[2]", "value": "1.21 ± 0.159", "unit": "h"}, {"measurement": "effect of dextromethorphan on blood glucose level", "setting": "[3]", "value": "reversed"}, {"measurement": "IC50", "setting": "[4]", "value": 1200, "unit": "nM"}, {"measurement": "affinity for 5-HT2A receptors", "setting": "[5]", "value": "the same affinity as ritanserin"}, {"measurement": "classification as 2D6 inhibitor", "setting": "[6]", "value": "weak 2D6 inhibitor"}, {"measurement": "increase in the substrate AUC", "setting": "[6]", "value": "less than 2 fold"}, {"measurement": "frequency of DOI-induced head shakes", "setting": "[7]", "value": "reduced"}, {"measurement": "inhibition type (Dixon plots)", "setting": "[8]", "value": "fit well to all competitive inhibition types"}, {"measurement": "Ki", "setting": "[9]; Ki calculated using the Cheng Prusoff equation", "value": 5.01, "unit": "nM"}, {"measurement": "IC50", "setting": "[9]; inhibition of [3H]ketanserin binding, HEK-293 cells expressing human recombinant 5HT2A receptor", "value": 9.6, "unit": "nM"}, {"measurement": "ANOVA interaction between dose of sarpogrelate and dose of dextromethorphan", "setting": "[10]; PCP 5 mg/kg s.c., 60-120 min, listed as sarpogrelate racemate", "value": "significant interaction"}, {"measurement": "activity in PCP-treated rats", "setting": "[10]; given in the absence of dextromethorphan", "value": "neither sarpogrelate racemate nor sarpogrelate enantiomers reduced activity"}, {"measurement": "motor hyperactivity in PCP-treated rats", "setting": "[10]; in the presence of dextromethorphan, racemate 3 mg/kg, (−) sarpogrelate 1 or 3 mg/kg i.p., PCP 5 mg/kg s.c., 60-120 min", "value": "inhibited motor hyperactivity in PCP-treated rats"}]}
{"smiles": "CN(C)CCO[C@]1(c2ccccc2)C[C@H]2CC[C@]1(C)C2(C)C", "note": "[Compound 829, N,N-dimethyl-2-[[(1R,3S,4R)-4,7,7-trimethyl-3-phenyl-3-bicyclo[2.2.1]heptanyl]oxy]ethanamine]", "values": [{"measurement": "CYP2D6-mediated dextromethorphan O-demethylation", "setting": "[11]", "value": "observed to inhibit"}, {"measurement": "t(max)", "setting": "[12]; po", "value": 1.0, "unit": "h"}, {"measurement": "AUC (0.96) for H-3 relative to C-14 (times higher)", "setting": "[12]", "value": "10-15 times"}, {"measurement": "concentrations in the hypophysis relative to plasma and brain tissues", "setting": "[12]", "value": "at least two times higher"}, {"measurement": "entry into brain tissues", "setting": "[12]", "value": "intact molecules entered brain tissues from the circulation"}, {"measurement": "ratio of AUC of H-3-labelled compound over C-14", "setting": "[12]", "value": "50-60"}, {"measurement": "time of peak characteristic of enterohepatic cycle", "setting": "[12]", "value": 12, "unit": "h"}, {"measurement": "time of peak concentrations after the final treatment", "setting": "[12]", "value": 0.5, "unit": "h"}]}
{"smiles": "Cc1nc2sccn2c(=O)c1CCN1CCC(=C(c2ccc(F)cc2)c2ccc(F)cc2)CC1", "note": "[ritanserin]", "values": [{"measurement": "antidepressant-like effects of memantine (immobility time)", "setting": "[13]", "value": "reverse antidepressant-like effects of an effective dose of memantine"}]}
